Data as given in paper PMC3656107, “Polymorphisms in the F8 Gene and MHC-II Variants as Risk Factors for the Development of Inhibitory Anti-Factor VIII Antibodies during the Treatment of Hemophilia A: A Computational Assessment” (PLoS Computational Biology, 2013).
“And” between values parts separate entries of the source, which are not always exact repeats. Equal values may be shown once.

Columns and labels:
MHC-II DRB1*11:01 [1] = biological target: T1, MHC-II DRB1*11:01 (Homo sapiens, UniProt P01903+P01911, A100R/A169T/A87E/I96F/K41T/L162R/M171V/P40S/Q125H/Q178H/Q39Y/Q99D/R42S/S66Y/T262R/V115G/W38E); assay: Cell-free REVEAL class II binding assay; details: signal of test peptide as percentage of allele-specific positive control peptide, fluorescence, conformation-specific monoclonal antibody
Source text: (§1) We used a proprietary high throughput, REVEAL binding assay (ProImmune, www.proimmune.com) to estimate the binding of individual test peptides to the following MHC-II variants: DRB1*03:01, DRB1*04:01, DRB1*07:01, DRB1*11:01, DRB1*15:01 and DRB1*15:03 [28]. Detection of a peptide binding to each MHC-II protein is based on the presence or absence of the native conformation of the MHC-peptide complex. The peptide-MHC-II complex is detected by an increase in a fluorescence signal due to the binding of a specific monoclonal antibody. Each test-peptide is given a score relative to a positive control peptide, which is a known T-cell epitope for that MHC-II molecule. The score is reported quantitatively as a percentage of the signal generated by the test peptide compared with the positive control peptide. Assay performance is evaluated by including in each set of measurements an intermediate control peptide which is known to bind the MHC-II molecule but with a lower affinity than the positive control peptide. Note that the positive control peptide used to determine the binding score is different from the positive control peptides depicted in the figures, which are known T-cell epitopes identified in the FVIII molecule.

MHC-II DRB1*07:01 [2] = biological target: T2, MHC-II DRB1*07:01 (Homo sapiens, UniProt P01903+P01911, A100R/A102G/A103Q/D57E/D86V/E43K/F76Y/K127E/L162R/M171V/P40G/Q125H/Q99D/R33Q/R42Y/R54Q/S133A/S66F/T210M/V115G/Y107V/Y59L/Y89S); assay: Cell-free REVEAL class II binding assay; details: signal of test peptide as percentage of allele-specific positive control peptide, fluorescence, conformation-specific monoclonal antibody
Source text: as §1

MHC-II DRB1*15:03 [3] = biological target: T3, MHC-II DRB1*15:03 (Homo sapiens, UniProt P01903+P01911, Y59H); assay: Cell-free REVEAL class II binding assay; details: signal of test peptide as percentage of allele-specific positive control peptide, fluorescence, conformation-specific monoclonal antibody
T3 construct: purchased ProImmune
Source text: as §1

MHC-II DRB1*03:01 [4] = biological target: T4, MHC-II DRB1*03:01 (Homo sapiens, UniProt P01903+P01911, A100K/A102G/A103R/A169T/F55Y/I96L/K41T/L162R/M171V/P40S/Q125H/Q178H/Q39Y/R42S/S66N/T106N/T262R/W38E/Y61H); assay: Cell-free REVEAL class II binding assay; details: signal of test peptide as percentage of allele-specific positive control peptide, fluorescence, conformation-specific monoclonal antibody
Source text: as §1

MHC-II DRB1*15:01 [5] = biological target: T5, MHC-II DRB1*15:01 (Homo sapiens, UniProt P01903+P01911); assay: Cell-free REVEAL class II binding assay; details: signal of test peptide as percentage of allele-specific positive control peptide, fluorescence, conformation-specific monoclonal antibody
T5 construct: purchased ProImmune
Source text: as §1

MHC-II DRB1*04:01 [6] = biological target: T6, MHC-II DRB1*04:01 (Homo sapiens, UniProt P01903+P01911, A100K/A169T/F76Y/I96L/K127E/L162R/M171V/N62H/P40V/Q125Y/R42H/S133A/S149N/S66Y/V115G/V209L/W38E); assay: Cell-free REVEAL class II binding assay; details: signal of test peptide as percentage of allele-specific positive control peptide, fluorescence, conformation-specific monoclonal antibody
Source text: as §1

MHC-II DRB1*11:01 [7] = biological target: T1, MHC-II DRB1*11:01; assay: Cell-free REVEAL class II stability assay; details: half-life of peptide-MHC-II complex (h, capped at 120) x Binding Score / 100, conformational ELISA
Description: (§2) We measured the half-life of each peptide-MHC-II complex using REVEAL peptide-MHC affinity assays developed by ProImmune Ltd. (Oxford, UK). On-rates of peptides were measured over a 96-hr period at 10°C. A unique positive control peptide was used for each MHC-II allele. Samples of assembling peptide-MHC complexes were taken at defined time points and snap-frozen in liquid nitrogen prior to analysis. Assembly of peptide-MHC complexes was detected using a conformational ELISA involving an anti-HLA antibody. On-rates were calculated by fitting data to a one-phase association curve: [drawing 1] To determine the off-rates of the peptides, samples of dissociating complexes were taken at defined time points and frozen in liquid nitrogen prior to analysis. Percent denaturation of peptide-MHC complexes was also detected using a conformational ELISA. Off-rates were calculated by fitting data to a one-phase dissociation curve: [drawing 2] On- and off-rate half-life values (t1/2) were calculated from the rate constant (k) using the following equation: [drawing 3] To obtain a normalized stability score, the half-life values were multiplied by the Binding Score (see above) and divided by 100.

MHC-II DRB1*07:01 [8] = biological target: T2, MHC-II DRB1*07:01; assay: Cell-free REVEAL class II stability assay; details: half-life of peptide-MHC-II complex (h, capped at 120) x Binding Score / 100, conformational ELISA
Description: as §2

MHC-II DRB1*15:03 [9] = biological target: T3, MHC-II DRB1*15:03; assay: Cell-free REVEAL class II stability assay; details: half-life of peptide-MHC-II complex (h, capped at 120) x Binding Score / 100, conformational ELISA
Description: as §2

MHC-II DRB1*03:01 [10] = biological target: T4, MHC-II DRB1*03:01; assay: Cell-free REVEAL class II stability assay; details: half-life of peptide-MHC-II complex (h, capped at 120) x Binding Score / 100, conformational ELISA
Description: as §2

MHC-II DRB1*15:01 [11] = biological target: T5, MHC-II DRB1*15:01; assay: Cell-free REVEAL class II stability assay; details: half-life of peptide-MHC-II complex (h, capped at 120) x Binding Score / 100, conformational ELISA
Description: as §2

MHC-II DRB1*04:01 [12] = biological target: T6, MHC-II DRB1*04:01; assay: Cell-free REVEAL class II stability assay; details: half-life of peptide-MHC-II complex (h, capped at 120) x Binding Score / 100, conformational ELISA
Description: as §2

T4 sequence (P01903 26-254 limits assumed, other chains not shown): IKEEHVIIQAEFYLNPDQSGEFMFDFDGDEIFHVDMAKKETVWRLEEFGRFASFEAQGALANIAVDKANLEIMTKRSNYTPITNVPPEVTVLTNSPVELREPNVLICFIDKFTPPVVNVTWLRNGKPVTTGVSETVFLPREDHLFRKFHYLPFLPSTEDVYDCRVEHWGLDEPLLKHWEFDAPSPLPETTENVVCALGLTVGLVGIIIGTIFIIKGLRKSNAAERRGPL
T3 sequence (P01903 26-254, other chains not shown): as the sequence (P01903 26-254 limits assumed, other chains not shown) above
T1 sequence (P01903 26-254 limits assumed, other chains not shown): as above

NNPKEWLQVDFQKTM [synthetic wild type FVIII 15 mer peptide, region of ns-SNP M2238V]
Binding Score (MHC-II DRB1*11:01 [1]): 3.5% | Binding Score (MHC-II DRB1*07:01 [2]): 0.6% | Binding Score (MHC-II DRB1*15:03 [3]): 0.1% | Binding Score (MHC-II DRB1*03:01 [4]): 12.6% | Binding Score (MHC-II DRB1*15:01 [5]): 0.1% | Binding Score (MHC-II DRB1*04:01 [6]): 1.7% | Stability Index (MHC-II DRB1*11:01 [7]): 0.1 | Stability Index (MHC-II DRB1*07:01 [8]): 0.1 | Stability Index (MHC-II DRB1*15:03 [9]): 0.1 | Stability Index (MHC-II DRB1*03:01 [10]): 0.0 | Stability Index (MHC-II DRB1*15:01 [11]): 0.2 | Stability Index (MHC-II DRB1*04:01 [12]): 0.1

PLLTRYLRIHPQSWV [synthetic wild type FVIII 15 mer peptide]
Binding Score (MHC-II DRB1*11:01 [1]): 62.8% | Binding Score (MHC-II DRB1*07:01 [2]): 1.7% | Binding Score (MHC-II DRB1*15:03 [3]): 10.7% | Binding Score (MHC-II DRB1*03:01 [4]): 0.0% | Binding Score (MHC-II DRB1*15:01 [5]): 714.7% | Binding Score (MHC-II DRB1*04:01 [6]): 12.1% | Stability Index (MHC-II DRB1*11:01 [7]): 8.8 | Stability Index (MHC-II DRB1*07:01 [8]): 2.0 | Stability Index (MHC-II DRB1*15:03 [9]): 12.8 | Stability Index (MHC-II DRB1*03:01 [10]): 0.0 | Stability Index (MHC-II DRB1*15:01 [11]): 857.7 | Stability Index (MHC-II DRB1*04:01 [12]): 1.4

PIIARYIRLHPTHYS [synthetic wild type FVIII 15 mer peptide]
Binding Score (MHC-II DRB1*11:01 [1]): 118.8% | Binding Score (MHC-II DRB1*07:01 [2]): 0.0% | Binding Score (MHC-II DRB1*15:03 [3]): 11.1% | Binding Score (MHC-II DRB1*03:01 [4]): 0.3% | Binding Score (MHC-II DRB1*15:01 [5]): 917.4% | Binding Score (MHC-II DRB1*04:01 [6]): 25.4% | Stability Index (MHC-II DRB1*11:01 [7]): 9.0 | Stability Index (MHC-II DRB1*07:01 [8]): 0.0 | Stability Index (MHC-II DRB1*15:03 [9]): 13.3 | Stability Index (MHC-II DRB1*03:01 [10]): 0.0 | Stability Index (MHC-II DRB1*15:01 [11]): 1100.9 | Stability Index (MHC-II DRB1*04:01 [12]): 6.9

SYWKASEGAEYDDQT [synthetic wild type FVIII 15 mer peptide]
Binding Score (MHC-II DRB1*11:01 [1]): 2.8% | Binding Score (MHC-II DRB1*07:01 [2]): 0.0% | Binding Score (MHC-II DRB1*15:03 [3]): 0.0% | Binding Score (MHC-II DRB1*03:01 [4]): 0.0% | Binding Score (MHC-II DRB1*15:01 [5]): 0.0% | Binding Score (MHC-II DRB1*04:01 [6]): 1.5% | Stability Index (MHC-II DRB1*11:01 [7]): 0.0 | Stability Index (MHC-II DRB1*07:01 [8]): 0.0 | Stability Index (MHC-II DRB1*15:03 [9]): 0.0 | Stability Index (MHC-II DRB1*03:01 [10]): 0.0 | Stability Index (MHC-II DRB1*15:01 [11]): 0.0 | Stability Index (MHC-II DRB1*04:01 [12]): 0.2

EWLQVDFQKTMKVTG [synthetic wild type FVIII 15 mer peptide, region of ns-SNP M2238V]
Binding Score (MHC-II DRB1*11:01 [1]): 157.4% and 152.7% | Binding Score (MHC-II DRB1*07:01 [2]): 0.1% and 0.2% | Binding Score (MHC-II DRB1*15:03 [3]): 24.1% and 17.6% | Binding Score (MHC-II DRB1*03:01 [4]): 57.0% and 65.6% | Binding Score (MHC-II DRB1*04:01 [6]): 26.4% and 28.1% | Stability Index (MHC-II DRB1*11:01 [7]): 16.4 and 16.2 | Stability Index (MHC-II DRB1*07:01 [8]): 0.1 and 0.2 | Stability Index (MHC-II DRB1*15:03 [9]): 2.3 and 1.6 | Stability Index (MHC-II DRB1*03:01 [10]): 33.3 and 31.3 | Stability Index (MHC-II DRB1*04:01 [12]): 4.8 and 5.4

PKEWLQVDFQKTMKV [synthetic wild type FVIII 15 mer peptide, region of ns-SNP M2238V]
Binding Score (MHC-II DRB1*11:01 [1]): 8.6% and 4.2% | Binding Score (MHC-II DRB1*07:01 [2]): 0.0% | Binding Score (MHC-II DRB1*15:03 [3]): 0.0% | Binding Score (MHC-II DRB1*03:01 [4]): 36.8% and 60.5% | Binding Score (MHC-II DRB1*15:01 [5]): 0.4% and 0.9% | Binding Score (MHC-II DRB1*04:01 [6]): 5.1% and 4.1% | Stability Index (MHC-II DRB1*11:01 [7]): 0.3 and 0.2 | Stability Index (MHC-II DRB1*07:01 [8]): 0.0 | Stability Index (MHC-II DRB1*15:03 [9]): 0.0 | Stability Index (MHC-II DRB1*04:01 [12]): 0.3 and 0.2
